Measurements as given in article PMC10530836, “Synthesis, Molecular Docking, and Biological Evaluation of Novel Anthranilic Acid Hybrid and Its Diamides as Antispasmodics” (International Journal of Molecular Sciences, 2023).

What was measured:
Type in all cases: cell-based
[1] = tested on: Gram-positive bacteria, Gram-negative bacteria, yeasts and fungi; assay: Antimicrobial activity, whole panel; conditions: agar well diffusion
Procedure: In our experiments, six Gram-positive bacteria, six Gram-negative bacteria, two yeasts, and six fungi were used. The hybrid molecule and its diamides were tested in vitro for their antimicrobial activity against human pathogenic bacteria and economically relevant phytopathogenic fungi. The inhibition zones of bacterial and fungal growth caused by the novel compounds are outlined in Table 3. The obtained results were compared to a known antispasmodic mebeverine and its precursors. […]
The antimicrobial activity of the samples was determined by the agar well diffusion method. […]
The inocula of the tested bacteria/yeasts was prepared by homogenization of a small amount of biomass in 5 mL of sterile 0.5% NaCl. […] The number of viable cells and fungal spores was determined using a bacterial counting chamber Thoma (Poly-Optik, GmbH, Bad Blankenburg, Germany). […] Next, the inoculated media were transferred in a quantity of 18 mL in sterile Petri plates (d = 90 mm) (Gosselin™, Hazebrouck, France) and allowed to harden. […]
The antimicrobial activity was determined by measuring the diameter of the inhibition zones around the wells on the 24th and 48th h of incubation. […]

Mucor sp. = assay: Antimicrobial activity, agar well diffusion; conditions: Dose 0.6 mg/disk, dwell = 6 mm
Excerpt: (§1) Twenty tested microorganisms including six Gram-positive bacteria (Bacillus subtilis ATCC 6633, Bacillus amyloliquefaciens 4BCL-YT, Staphylococcus aureus ATCC 25923, Listeria monocytogenes NBIMCC 8632, Enterococcus faecalis ATCC 19433), six Gram-negative bacteria (Salmonella enteritidis ATCC 13076, Klebsiella sp.—clinical isolate, Escherichia coli ATCC 25922, Proteus vulgaris ATCC 6380, Pseudomonas aeruginosa ATCC 9027), two yeasts (Candida albicans NBIMCC 74, Saccharomyces cerevisiae ATCC 9763), and six fungi (Aspergillus niger ATCC 1015, Aspergillus flavus, Penicillium sp., Rhizopus sp., Mucor sp.—plant isolates, Fusarium moniliforme ATCC 38932) from the collection of the Department of Microbiology at the University of Food Technologies—Plovdiv, Bulgaria, were selected for the antimicrobial activity test. The antimicrobial activity of the samples was determined by the agar well diffusion method. The tested bacteria B. subtilis and B. amyloliquefaciens were cultured on LBG agar at 30 °C. The test bacteria S. aureus, L. monocytogenes, E. faecalis, S. enteritidis, Klebsiella sp., E. coli, P. vulgaris, and P. aeruginosa were cultured on LBG agar at 37 °C for 24 h. The yeast C. albicans was cultured on MEA at 37 °C, while S. cerevisiae was cultured on MEA at 30 °C for 24 h. The fungi A. niger, A. flavus, Penicillium sp., Rhizopus sp., Mucor sp., and F. moniliforme were grown on MEA at 30 °C for 7 days or until sporulation. The inocula of the tested bacteria/yeasts was prepared by homogenization of a small amount of biomass in 5 mL of sterile 0.5% NaCl. The inocula of tested fungi were prepared by the addition of 5 mL of sterile 0.5% NaCl into the tubes. After stirring by vortex V-1 plus (Biosan), they were filtered and replaced in other tubes before use. The number of viable cells and fungal spores was determined using a bacterial counting chamber Thoma (Poly-Optik, GmbH, Bad Blankenburg, Germany). Their final concentrations were adjusted to 10^8 cfu/mL for bacterial/yeast cells and 10^5 cfu/mL for fungal spores and then inoculated in preliminarily melted and tempered at 45–48 °C LBG/MEA agar media. Next, the inoculated media were transferred in a quantity of 18 mL in sterile Petri plates (d = 90 mm) (Gosselin™, Hazebrouck, France) and allowed to harden. Then, six wells (d = 6 mm) per plate were cut, and triplicates of 60 μL of each extract were pipetted into the agar wells. The Petri plates were incubated in identical conditions. The antimicrobial activity was determined by measuring the diameter of the inhibition zones around the wells on the 24th and 48th h of incubation. Tested microorganisms with inhibition zones of 18 mm or more were considered sensitive; moderately sensitive were those in which the zones were from 12 to 18 mm; resistant were those in which the inhibition zones were up to 12 mm or completely missing.

[2] = tested on: Fusarium moniliforme ATCC 38932; assay: Antimicrobial activity, agar well diffusion; conditions: Dose 0.6 mg/disk, dwell = 6 mm
Excerpt: as §1

[3] = tested on: Saccharomyces cerevisiae ATCC 9763; assay: Antimicrobial activity, agar well diffusion; conditions: Dose 0.6 mg/disk, dwell = 6 mm
Excerpt: as §1

[4] = tested on: Candida albicans NBIMCC 74; assay: Antimicrobial activity, agar well diffusion; conditions: Dose 0.6 mg/disk, dwell = 6 mm
Excerpt: as §1

Nc1ccccc1C(=O)NCCc1cccc(Cl)c1 [Compound 3, 2-amino-N-(3-chlorophenethyl)benzamide]
antimicrobial activity (overall, in words) [1]: very good antimicrobial activity | Inhibition Zones (Mucor sp.): 15 mm | Inhibition Zones [2]: 15 mm | Inhibition Zones [3]: 15 mm | Inhibition Zones [4]: 15 mm
